From patent US20080214675A1, “Hydroxybenzoic Acid Amides and the Use Thereof For Masking Bitter Taste” (SYMRISE GMBH & CO. KG, priority 2004, published 2008)
Counter-ions that a name gives are not always drawn.

Tests used:
[1] = examined in the context of various sweeteners; cited from earlier work
[2] = Bitterness reduction in a bitter principle solution (expert panel rating); format: in vivo; conditions: for % reduction in bitterness impression / Testers positive (number of testers who could detect a masking effect) / Bitterness impression (1-10) with: 500 ppm caffeine; for Bitterness impression (1-10) with: error = 95% confidence interval
Method: To quantify the reduction in the bitterness impression, the bitterness of a 500 ppm caffeine or salicin solution and a sample containing 500 ppm of caffeine or salicin and a varying amount of the exemplary compound was determined by a group of experts (rating 0 [not bitter] to 10 [extremely bitter]). The evaluation was made as a calculation of the reduction (in %) of the bitterness impression from the average values for the ratings of the caffeine or salicin solution and the solutions containing caffeine or salicin and the exemplary compound. 2,4-Dihydroxybenzoic acid (2,4-DHB) from U.S. Pat. No. 5,643,941 was used as a comparison.

[3] = Strengthening the sweetness of a sugar solution (expert panel rating); format: in vivo; conditions: 5% sucrose; for Sweetness impression (1-10) with: error = standard deviation
Method: To quantify the strengthening of the sweetness impression, the sweetness of a 5% sucrose solution and a sample containing […] and an amount of the exemplary compound was determined by a group of experts (rating 0 [not sweet] to 10 [extremely sweet]). The evaluation was made as a calculation of the strengthening (in %) of the sweetness impression from the average values for the ratings of the sucrose solution and the solutions containing sucrose and the exemplary compound. Vanillin was used as a comparison as a typical aromatic substance described as sweet.

[4] = Strengthening the sweetness of a yogurt (expert panel rating); format: in vivo
Method: To quantify the strengthening of the sweetness impression, the sweetness of a low-fat (0.1%) commercial yogurt (Optiwell) containing 5% sucrose and of a sample containing […] and an amount of the exemplary compound was determined by a group of experts (rating 0 [not sweet] to 10 [extremely sweet]). The evaluation was made as a calculation of the strengthening (in %) of the sweetness impression from the average values for the ratings of the yogurt containing sucrose and the yogurt containing sucrose and the exemplary compound.

[5] = 200 ppm substance, 5% sucrose, low-fat yogurt

SMILES	% reduction in bitterness impression ([2]; 100 ppm substance)	Testers positive (number of testers who could detect a masking effect) ([2]; 100 ppm substance)	Bitterness impression (1-10) with ([2]; 100 ppm substance)	other results
COc1ccc(CNC(=O)c2c(O)cc(O)cc2O)cc1O [2,4,6-trihydroxybenzoic acid-N-(3-hydroxy-4-methoxybenzyl)amide]	–	–	–	taste [1]: tasteless
O=C(O)c1ccc(O)cc1O [2,4-DHB, 2,4-Dihydroxybenzoic acid, reference compound]	3%	9	5.0 ± 1.0	–
COc1cc(CNC(=O)c2ccc(O)cc2O)ccc1O [Example 1, 2,4-dihydroxybenzoic acid-N-(4-hydroxy-3-methoxybenzyl)amide]	–	–	–	% reduction in bitterness impression ([2]; 20 ppm substance): 29%, p < 0.05; Testers positive (number of testers who could detect a masking effect) ([2]; 20 ppm substance): 11; Bitterness impression (1-10) with ([2]; 20 ppm substance): 4.5 ± 0.6; % strengthening of sweetness impression ([3]; 100 ppm substance): 7.2%; Testers positive (number of testers who could detect a strengthening effect) ([3]; 100 ppm substance): 7; Sweetness impression (1-10) with ([3]; 100 ppm substance): 5.6 ± 1.7; % strengthening of sweetness impression [4, 5]: 26.5%; Testers positive (number of testers who could detect a strengthening effect) [4, 5]: 12; Sweetness impression (1-10) with ([4]; 200 ppm substance, 5% sucrose, low-fat yogurt, error = standard deviation): 5.4 ± 1.5; descriptors of the yogurt ([4]; yogurt containing the compound): more fullness, less acidic, soft, creamy; preference of the yogurt ([4]; yogurt containing the compound vs yogurt with sucrose only): preferred
COc1cc(CNC(=O)c2c(O)cc(O)cc2O)ccc1O [Example 2, 2,4,6-Trihydroxybenzoic acid-N-(4-hydroxy-3-methoxybenzyl)amide]	24%, p < 0.05	8	5.1 ± 0.9	–
COc1cc(CNC(=O)c2ccccc2O)ccc1O [Example 3, 2-Hydroxybenzoic acid-N-(4-hydroxy-3-methoxybenzyl)amide]	23%, p < 0.05	12	4.1 ± 0.9	–
COc1cc(CNC(=O)c2ccc(O)cc2)ccc1O [Example 4, 4-Hydroxybenzoic acid-N-(4-hydroxy-3-methoxybenzyl)amide]	26%, p < 0.05	9	4.5 ± 0.5	–
COc1cc(CNC(=O)c2ccc(O)cc2O)ccc1O [Example 5, 2,4-Dihydroxybenzoic acid-N-4-hydroxy-3-methoxybenzylamide monosodium salt]	32%, p < 0.05	13	4.1 ± 1.0	–
COc1cc(CCNC(=O)c2ccc(O)cc2O)ccc1O [Example 6, 2,4-Dihydroxybenzoic acid-N-2-(4-hydroxy-3-methoxyphenyl)ethylamide]	20%, p < 0.05	9	3.7 ± 0.8	–
COc1ccc(CNC(=O)c2ccc(O)cc2O)cc1O [Example 9, 2,4-Dihydroxybenzoic acid-N-3-hydroxy-4-methoxybenzylamide, reference compound]	11%	–	3.9 ± 0.8	change in the bitterness impression (bitterness-masking effect) ([2]; application example 1): No statistically significant change
COc1cc(C=O)ccc1O [vanillin, Vanillin, reference compound]	–	–	–	% strengthening of sweetness impression ([3]; 600 ppb substance): −3%; Testers positive (number of testers who could detect a strengthening effect) ([3]; 600 ppb substance): 5; Sweetness impression (1-10) with ([3]; 600 ppb substance): 6.0 ± 1.1
